The values below are quoted from earlier work in US20020039567A1, “Methods of treating bone or cartilage conditions by the administration of creatine” (priority 1998, published 2002).

Data set [1] relates to CK activity in chondroblasts and osteoblasts. As to conditions: cited from earlier work.
Data set [2] relates to CK activity in rat epiphyseal cartilage cells. Conditions: cited from earlier work.
In another data set the test system is SaOS-2 cells. Conditions: cited from earlier work.
The subject of data set [3] is chick limb bud mesenchymal cells. As to conditions: cited from earlier work; for mineralization: addition of 1 and 2 mM ATP or 2 mM PCr; for rate of cell proliferation, rate of matrix synthesis, mean crystallite length, rate of mineral deposition: contrasted with cultures supplemented with inorganic phosphate.
The subject of the next data set is embryonic chick femora. Conditions: cited from earlier work.

For the compound `CC/C(=C(\c1ccccc1)c1ccc(OCCN(C)C)cc1)c1ccccc1` [tamoxifen], the “effect of tamoxifen by itself” value in data set [1] (high concentrations) is given as “stimulatory effects”. Also, the “effect of E2 in presence of tamoxifen” value in data set [1] (high levels of tamoxifen) was “inhibited”.

In the case of `C[C@]12CC[C@@H]3c4ccc(O)cc4CC[C@H]3[C@@H]1CC[C@@H]2O` [E2, 17b-estradiol], in data set [2], the “increase in CK activity” value was 40%.

On to phosphocreatine [PCr], for which the “alkaline phosphatase (ALP) activity” value with SaOS-2 cells is listed as “increases”. In addition, in data set [3], the mineralization result is on record as “promoted” and the “rate of cell proliferation, rate of matrix synthesis, mean crystallite length, rate of mineral deposition” value is given as “does not alter”. In addition, the “perichondral ossification in the diaphysis” value in the data set on embryonic chick femora (0.1 mM in chick embryo extract with 20% horse serum) is reported as “accelerated”. For the same compound, in the data set with embryonic chick femora (very crude preparations at 0.1 mM in chick embryo extract with 20% horse serum), the “deposition of calcium in the cartilage matrix of the epiphysis” value is on record as “accelerated”.

As for `Nc1ncnc2c1ncn2[C@@H]1O[C@H](COP(=O)(O)OP(=O)(O)OP(=O)(O)O)[C@@H](O)[C@H]1O` [ATP], in data set [3], the mineralization result is recorded as “promoted” and the “rate of cell proliferation, rate of matrix synthesis, mean crystallite length, rate of mineral deposition” value was “does not alter”.
